Assay results: US20180140537A1, “ACTIVE COMPLEX FOR A COSMETIC PRODUCT AGAINST SKIN AGEING” (priority 2014, published 2018)

Key:
[1] = test system: HaCaT keratinocytes and NHDF fibroblasts; experiment: Skin anti-ageing potential index AAC = AOE + 1/2 DPC + 1/2 DPM; design: species or system human; conditions: Example 1; AOE+½DPC+½DPM
Description: An anti-age activity index designated as “AAC” was determined according to the present invention, which is a quantitative parameter of the anti-ageing skin potential of a test element taking into account a protective effect at the epidermis by integrating an epidermal anti-oxidant effect score and a protective effect at the dermis by integrating a dermo-protective effect score towards the synthesis of collagen, a main marker of the dermal extracellular matrix (ECM) and/or towards the degradation of metalloproteinase-1 (MMP-1) which is a collagenase enzyme produced by the fibroblasts of the dermis degrading the dermal extracellular matrix (ECM). Still more specifically, a capability is sought for opposing the reduction of collagen synthesis following UV stress and opposing the increase in the production of metalloproteinase-1 for ensuring dermal homeostasis.
More specifically, according to the present invention, an AAC potential is defined as follows:
[AOE]: % of epidermal anti-oxidant potential as defined hereafter.
[DPC.]: % of dermo-protective collagen potential as defined hereafter.
[DPM]: % of dermo-protective MMP1 potential as defined hereafter.
The skin anti-ageing potential ([AAC]) was calculated from the experimental data according to:
[A.A.C]=[AOE]+½.[DPC]+½.[DPM]

MMP-1 = MMP-1 ELISA on UV-A irradiated fibroblasts (DPM); type: cell-based, human; conditions: for DPM, % reduction of MMP-1 / [MMP-1]: VE 1 mM; for [MMP-1]: (+) UV-A, corrected for cell proteins
Description: (§1) 3.2.1) The principle of the assay is based on the evaluation of 2 parameters—neosynthesis of collagen I and production of MMP-1—on human fibroblasts [NHDF] cultivated in the absence or in the presence of the assay element, and stimulated by UV-A.
(§2) The level of procollagen I is quantified by assaying [PIP] (procollagen of the I peptide type) in incubation media by means of an ELISA assay. The measurement of the MMP-1 level is conducted on the incubation media by means of an ELISA assay.
(§3) Fibroblasts [NHDF] are detached from their support by trypsinization. After counting, the cell suspension is sown in 24-well plates in an amount of 1.10^5 cells/well, in a [D-MEM+10% FCS] medium.
(§4) After 24 h of incubation, the culture medium is removed and replaced with fresh medium supplemented with 1% of FCS, without any ascorbic acid and containing the product(s) to be investigated. The cells are replaced in the oven and incubated for 24 h, in an air-CO2 atmosphere (95%/5%).
(§5) After incubation with test solutions, the cells are rinsed with HBSS and then exposed to UV-A (Philips TL-K 40 W ACTINIC BL REFLECTOR tubes) through HBSS. The UV-A irradiation is of about 10 J/cm^2 for 1 h. After irradiation, the HBSS is replaced with fresh medium containing the assay element.
(§6) The cells are replaced at 37° C. and incubated for 24 h. At the end of the assay, the incubation media of the cultures are sampled and frozen at −20° C. while awaiting the assaying of procollagen I and of MMP-1.
(§7) In parallel, the cell mats are rinsed with HBSS and treated for an assay of cell proteins (BCA protein assay). A (0.1N) NaOH solution is added into each well. After incubation, the extracts are sampled and transferred into a 96-well plate. 200 μl of BCA reagent are added into each well. After incubation, the absorbance (optical density) is measured at 570 nm with a microplate reader.
The MMP-1 activity is measured with an ELISA assay (Human Active MMP-1 from R&D Systems® laboratories, FRANCE) for detecting and quantifying by fluorescence the MMP-1 activity.
(§8) In both cases, the quantification of the fluorescence is accomplished in the culture supernatants, according to the instructions provided by the R&D Systems® laboratories, France, the absorbance being measured at 450 nm.
(§9) The assay was carried out on [NHDF] (F06.2H7 strain) fibroblasts cultivated in a [DMEM+1% FCS] medium, in the absence of sodium ascorbate.
(§10) The levels of procollagen I and of MMP-1 were measured in the supernatants of the cultures after treatment and irradiation of the cells.
(§11) The NHDF cells were treated with the assay complexes CAAL-2, CAAL-3 and CAAL-4, before (24 h) and after (24 h) UVA irradiation.
(§12) The concentrations of procollagen I [PIP] c-terminal peptide and of metalloproteinase-1 [MMP-1] in the different samples (ng/ml) were corrected according to the protein concentrations of the corresponding wells.
DPM=% of reduction in metalloproteinase-1 after treatment of NHDF fibroblasts with UVs in the presence of the complex according to the invention relatively to a control having been subject to a same UV treatment in the absence of an assay complex according to the present invention or other.
(§13) Assay conditions: • 1. Treating the cells, for 24 h, with the assay elements, before irradiation of the cells, • 2. Exposure of the cells to UV-As, in the absence of the assay elements, • 3. Incubation of the irradiated cells for 24 h, in the presence of the assay elements, • 4. Quantification of the levels of pro-collagen I ([PIP] assay) and of MMP-1 in the incubation media.
(§14) Results: The [PIP] and [MMP] values recorded at the control and treated cultures were corrected according to the average level of cell proteins (μg/well).
MMP-1 production: assay of MMP-1 in the incubation media by an Elisa assay.

HaCaT keratinocytes = experiment: DCFH assay: UV-B-induced intracellular ROS (epidermal anti-oxidant potential, AOE); type: cell-based, human; conditions: for AOE, % reduction of [ROSUV]: vs (+) UV control
Source text: 3.1.1) The principle of the assay is based on the measurement of the intracellular oxidation level by means of the probe: 2′,7′-dichloro-dihydrofluorescein diacetate (DCFH-DA). Non-fluorescent DCFH-DA penetrates by passive diffusion into the cells. After cleavage of the acetate groups by the esterases, DCFH accumulates at the cytosol. The oxidation of DCFH by the reactive oxygen species (ROS: “Reactive Oxidative Species”) leads to the formation of a fluorescent compound. The DCF fluorescence intensity gives the possibility of evaluating the oxidation level of the cells subject to an oxidative stress.
More specifically, the measurement of the fluorescence intensities of DCF gives the possibility of evaluating the oxidation level of the cells subject to an oxidative stress. The DCFH assay detects a large range of ROSes: hydroxyl peroxyl and other ROSes (Fluorescence probes used for detection of reactive oxygen species, A. Gomes et al., J. Biochem. Biophys. Methods, 65:45-80; 2005).
HaCaT keratinocytes cultivated in a mono-layer are detached by trypsinization. The cell suspension is sown in 24-well plates.
2 plates are sown in parallel: 1 plate [DCFH] (measurement of DCFH fluorescence) and 1 plate [Prot] (measurement of cell proteins).
The plates [DCFH] and [Prot] are treated in parallel, in an identical way, according to the following experimental procedure.
72 hours after sowing, the culture medium is removed and replaced with fresh medium containing the assay element. The cells are replaced at 37° C. and incubated for 24 hours, in an air-CO2 atmosphere (95%/5%). After incubation with the assay element, the cells are rinsed with HBSS (a so called Hanks solution) and then exposed to UV-B (Philips TL-K 40 W ACTINIC BL REFLECTOR tubes) through the HBSS. The cells were treated with the various assayed complexes before (24 h) and after (24 h) irradiation with UV-B for about 30 minutes at 20 mJ/cm^2.
After irradiation, the HBSS is replaced with fresh medium containing the assay element. The cells are replaced at 37° C. for 24 h in an air-CO2 atmosphere (95%/5%). At the end of the assay, the [DCFH] and [Prot] plates are treated, in the following way:
The [DCFH] plates are emptied and rinsed with PBS. The cells are then incubated at 37° C., in the presence of a DCFH-DA solution. After incorporating the probe, the cells are rinsed with PBS. An extraction buffer (Triton X-100 1%) is added into each well. After 45 mins of incubation, the lyzates are sampled, transferred into 96-well plates. The fluorescence intensities (λExc: 485 nm, λEm: 535 nm) are expressed in relative fluorescence units (RFU).
A dosage of the proteins (BCA protein assay) is carried out in parallel in order to correct the [DCFH] values (RFU/well) according to the cell protein level (pg/well) in order to do without a variation in the number of cells related to an effect of the assay element on cell growth.
The assay was carried out on HaCaT keratinocytes (HaCaTp91 strain) cultivated in a [DMEM+1% FCS] medium. The intracellular oxidation level was measured after treatment and irradiation of the cells.
The intracellular oxidation level (F.R.U/well: relative fluorescence unit) recorded at the control and treated cultures was corrected according to the average cell protein level (μg/well). The values [DCFH] are expressed in arbitrary units (from the optical densities): [DCFH]=(F.R.U/μg prot.).
Assay conditions: • 1. Pretreating the cells for 24 h, with the assay elements, before irradiation of the cells, • 2. Exposure of the cells to UV-B (20 mJ/cm^2), in the absence of the assay elements, • 3. Incubation of the irradiated cells for 24 h, in the presence of the assay elements, • 4. Quantification of the intracellular oxidation level (ROS) by measuring the fluorescence of DCFH.
The intracellular oxidation level (RFU/well) recorded at the control and treated cultures were corrected according to the average level of cell proteins (μg/well). […]

procollagen I = experiment: Procollagen I [PIP] ELISA on UV-A irradiated fibroblasts (DPC); type: cell-based, human
Description: as §1, §2, §3, §4, §5, §6, §7
The assay of the procollagen I in the samples is carried out with an ELISA assay (Procollagen Type I C-Peptide EIA Kit from R&D Systems® laboratories, France) for detecting and quantifying by fluorescence the C-terminal peptide of human procollagen I.
as §8, §9, §10, §11, §12
DPC=% of increase in collagen after treatment of the NHDF fibroblast cells with UV in the presence of the complex according to the invention relatively to a control having been subject to a same UV treatment in the absence of the assay complex according to the present invention or other; and
as §13, §14
Synthesis of procollagen I: assay of the [PIP] (procollagen of the type I peptide) assay in the incubation media.

[2] = test system: human keratinocyte cells (HaCaT line) and fibroblasts
Description: For each of the substances above, the maximum non-cytotoxic doses were determined, corresponding to cell viability ≥90% (hereafter “NCD”). Cell viability was evaluated by a neutral red test (NR) on human keratinocyte cells (HaCaT line) and on fibroblasts described hereafter after contact for 48 h. The substances were poured into the culture medium DMEM+10% FCS.

[3] = Example 1, NHDF, vs (+) UV control
[4] = Example 1, NHDF, vs (+) UV control, ASC 50 μg/ml
[5] = Example 1, relative to (+) UV control 2 = 100%
[6] = Example 2, NHDF, vs (+) UV control

Molecule: O=C1O[C@H]([C@@H](O)CO)C([O-])=C1O.[Na+] [ASC, sodium ascorbate]
- AAC skin anti-ageing potential [1]: 71.5%
- DPM, % reduction of MMP-1 (MMP-1; [3]): 0%
- AOE, % reduction of [ROSUV] (HaCaT keratinocytes; Example 1, VE 1 mM): 0%
- DPC, % increase in collagen (procollagen I; [4]): 143%
- [PIP] (%) (procollagen I; [5]): 243%
- [PIP] % of (+) UV control (procollagen I; Example 2): 243%
- [PIP] (procollagen I; Example 2, NHDF, (+) UV-A, corrected for cell proteins, ASC 50 μg/ml): 3.79 +/− 0.04
- DPC dermo-protective collagen potential (procollagen I; [6]): capable of restoring neosynthesis of collagen I depressed by UVs

Molecule: Cc1c(C)c2c(c(C)c1O)CC[C@@](C)(CCC[C@H](C)CCC[C@H](C)CCCC(C)C)O2 [VE, α-tocopherol]
- AAC skin anti-ageing potential [1]: 96.5%
- [MMP-1] (MMP-1; Example 1, NHDF, average +/- SD, n=3): 0.172+/— ng/ml
- DPM, % reduction of MMP-1 (MMP-1; [3]): 31%
- [MMP-1] (%) (MMP-1; [5]): 69%
- [MMP-1] % of (+) UV control (MMP-1; Example 2): 62%
- [MMP-1] (MMP-1; Example 2, NHDF): 0.198 +/− 0.006
- DPM dermo-protective MMP1 potential, % reduction of MMP-1 (MMP-1; [6]): 38%
- DCFH ASSAY intracellular oxidation level [DCFH] (HaCaT keratinocytes; Example 1, HaCaT, (+) UV-B 20 mJ/cm2, treated 24 h before and 24 h after, complexes at Table I conc., VE 1 mM, average +/- SD, n=3): 35.72 +/− 2.66 F.R.U/μg prot.
- UV-induced ROS (HaCaT keratinocytes; Example 1, [DCFH] minus non-irradiated control 1): 22.92 F.R.U/μg prot.
- UV-induced ROS (%) (HaCaT keratinocytes; [5]): 19%
- AOE, % reduction of [ROSUV] (HaCaT keratinocytes; Example 1, VE 1 mM): 81%
- UV-induced ROS (DCFH minus non-irradiated control) (HaCaT keratinocytes; Example 2): 16.38 RFU/μg prot.
- DCFH [ROS] intracellular oxidation level (HaCaT keratinocytes; Example 2, HaCaT, (+) UV-B 20 mJ/cm2, DMEM+FCS(1%), average +/- SD, n=3): 28.03 +/− 1.12 RFU/μg prot.
- UV-induced ROS (%) (HaCaT keratinocytes; Example 2, relative to (+) UV control = 100%): 12%
- AOE anti-oxidant epidermal potential, % reduction of [ROSUV] (HaCaT keratinocytes; Example 2, vitamin E 1 mM): 88%
- DPC, % increase in collagen (procollagen I; [4]): 0%

Molecule: sodium hyaluronate [SODIUM H[…]]
- NCD (%) by weight (maximum non-cytotoxic dose) [2]: 0.2% by weight
